PMC12040169 (PLOS Biology, 2025)

Test: in vitro
Conditions: human, hela cells, % viability

Compared with O=C1C2CCCCC2C(=O)N1CCCN1CCC(c2nc(-c3ccc(F)cc3)c3ccccn23)CC1 (centres unmarked) [CBK035972], FC(F)(F)c1ccc2c(c1)N(CCCN1CCN(C34CC5CC(CC(C5)C3)C4)CC1)c1ccccc1S2 [CBK261938] is higher in viability at 28.5 h, 10 µM: 90.1% for the first, 102% for the second.

Going from COC(=O)c1sc(NC(=O)C2CCCO2)c(C(=O)OC)c1C (centres unmarked) [CBK262622] to COC(=O)c1cc(OC)c(OC)cc1NC(=S)N1CCC(C(N)=O)CC1 [CBK268507], the viability at 28.5 h, 10 µM rises from 88% to 93.3%.

First: CC1CN(C(=O)NC(=O)c2ccc(-c3csnn3)cc2)CC(C)O1 (centres unmarked) [CBK017091]
Second: CC(C)[C@H](CO)Nc1nccnc1-c1ccc(C(=O)N2CCOCC2)cc1 [CBK037012]
The viability at 28.5 h, 10 µM of the first is lower: 87.7% for the first, 97.7% for the second.

Going from Nc1c(C(=S)c2cccs2)oc2c1C(c1ccccc1)CC(=O)N2 (centres unmarked) [CBK020690] to c1csc(-c2nccnc2OCC2COc3ccccc3O2)c1 (centres unmarked) [CBK107063], the viability at 28.5 h, 10 µM rises from 42.2% to 101%.

Going from COc1ccc(S(=O)(=O)Nc2nc(C)c(C(=O)Nc3ccc(F)cc3)s2)cc1OC [CBK050538] to COc1ccc(NC(=O)CSc2cnn[nH]2)cc1OC [CBK270010], the viability at 28.5 h, 10 µM falls from 103% to 102%.

Compared with O=C(Nc1ccccc1C(=O)O)c1ccc(-c2ccc(Cl)cc2Cl)o1 [CBK078453], O=C(Nc1ccc2oc(-c3cccnc3)nc2c1)c1ccc(Br)o1 [CBK263436] is higher in viability at 28.5 h, 10 µM: 105% for the first, 112% for the second.

First: CN(c1ncc(-c2ccccc2)cc1C(=O)NCc1ccco1)S(C)(=O)=O [CBK076506]
Second: O=S(=O)(Cc1ccccc1)Nc1cccc2[nH]ccc12 [CBK159490]
The viability at 28.5 h, 10 µM of the first is higher: 86.3% for the first, 76.6% for the second.

Compared with O=c1c2c(-c3ccc(F)cc3)csc2ncn1CC1(CO)CCOCC1 [CBK306822], O=C(c1sc2ccccc2c1C1CCN(Cc2ccccc2F)C1)N1CCOCC1 (centres unmarked) [CBK286260] is higher in viability at 28.5 h, 10 µM: 88% for the first, 103% for the second.

First: COc1ccc(CCNc2ncnc3c2cnn3-c2ccc(Cl)cc2)cc1OC [CBK265804]
Second: c1ccc(CCNc2cc(-c3cccc4ccccc34)ncn2)nc1 [CBK037762]
The viability at 28.5 h, 10 µM of the first is higher: 105% for the first, 94.5% for the second.

Going from CCN1CCN(Cc2nc3c(c(=O)n(C)c(=O)n3C)n2CCc2ccccc2)CC1 [CBK269547] to CCc1ccccc1NC(=O)Cn1ncnc1Sc1nc2c(c(=O)n(C)c(=O)n2C)n1C [CBK265963], the viability at 28.5 h, 10 µM falls from 110% to 87.6%.

First: CS(=O)(=O)c1ccc(CN2CCOC3(CCN(C(=O)c4ccc5ccccc5c4)CC3)C2)cc1 [CBK161122A]
Second: CC(C)(C)c1ccc(CNC(=O)C2CCCN2S(=O)(=O)c2ccc3ccccc3c2)cc1 (centres unmarked) [CBK265020]
The viability at 28.5 h, 10 µM of the first is lower: 104% for the first, 109% for the second.

Compared with Cc1ccc2c(c1)C(c1c[nH]c3ccccc13)(c1c[nH]c3ccccc13)C(=O)N2C [CBK266401], COc1ccccc1-c1cc2c(=O)n(C)c(-c3ccc(CNC(C)C)cc3)cc2o1 [CBK051699C] is lower in viability at 28.5 h, 10 µM: 103% for the first, 84.5% for the second.

First: c1cncc(OCCN2CCN(c3nccnc3OCCN3CCOCC3)CC2)c1 [CBK082914]
Second: c1cncc(C(N2CCOCC2)N2CCOCC2)c1 [CBK260999]
The viability at 28.5 h, 10 µM of the first is higher: 107% for the first, 94.5% for the second.

First: Cc1cccc(NC(=O)CC(C(=O)O)N2CCOCC2)c1 (centres unmarked) [CBK266925]
Second: CC(=O)Nc1cccc(NC(=O)N2CCCC(CO)C2)c1 (centres unmarked) [CBK156049]
The viability at 28.5 h, 10 µM of the first is lower: 96.3% for the first, 108% for the second.

First: O=C(NC1CCCCC1)NS(=O)(=O)c1ccc(CCNC(=O)c2cnc3ccccc3n2)cc1 [CBK013051]
Second: O=C(COC(=O)c1cc(S(=O)(=O)N2CCCCC2)ccc1Cl)c1ccccc1 [CBK261657]
The viability at 28.5 h, 10 µM of the first is higher: 87.1% for the first, 86% for the second.

Going from CN1CCN(c2nc3c(N)ncn(CC(O)CO)c-3n2)CC1 (centres unmarked) [CBK262571] to CCn1cc(-c2cncn2CC(C)N2CCCCC2)cn1 (centres unmarked) [CBK281556], the viability at 28.5 h, 10 µM falls from 108% to 103%.

First: c1ccc(C(CCN2CCc3ccccc3C2)c2ccccc2)cc1 [CBK126404]
Second: O=C(c1ccccc1)c1ccc2n1CCC2C(=O)Nc1ccccc1F (centres unmarked) [CBK300530]
The viability at 28.5 h, 10 µM of the first is higher: 99.1% for the first, 90.5% for the second.

First: COCCNC(=O)c1ccc(-c2cc(C)cs2)nc1NCC1CC1 [CBK106259]
Second: COCC(=O)NC(Cc1ccsc1)c1nc(C)c(C)s1 (centres unmarked) [CBK284773]
The viability at 28.5 h, 10 µM of the first is higher: 106% for the first, 100% for the second.

First: CC(=O)N1C[C@@H]2OCC(=O)N(Cc3ccccn3)[C@@H]2C1 [CBK289245]
Second: CC1CCCCC1NC(=O)NC(=O)Cn1nnc2ccccc2c1=O (centres unmarked) [CBK306046]
The viability at 28.5 h, 10 µM of the first is higher: 95.8% for the first, 90.2% for the second.

Going from CCOc1ccc(CNc2sc3c(c2C(=O)Nc2ccc(OC)cc2)CCC3)cc1 [CBK294473] to N#Cc1ccc(C(=O)NCc2ccc(OC3CCNCC3)cc2)cc1 [CBK036358T], the viability at 28.5 h, 10 µM rises from 80.6% to 89.5%.

Compared with Nc1nc2c(ccn2[C@H]2C[C@@H](O)[C@@H](CO)O2)c(=O)[nH]1 [CBK201238], CCn1cc(C(=O)N2CCOC(C(=O)O)C2)c(=O)c2ccc(C)nc21 (centres unmarked) [CBK307165] is lower in viability at 28.5 h, 10 µM: 100% for the first, 83.5% for the second.

Going from O=S(=O)(c1ccc(F)cc1)N1CCCC1c1cccc(Cc2cccc(F)c2)n1 (centres unmarked) [CBK286209] to O=C(Nc1nc(-c2cccc([N+](=O)[O-])c2)cs1)c1ccc(S(=O)(=O)N2CCCC2)cc1 [CBK102813], the viability at 28.5 h, 10 µM falls from 93.9% to 86.5%.

First: O=C(c1ccc2ccccc2n1)N1CCC(F)CC1 [CBK200276]
Second: CCc1ccc(CN2CCN(C(=O)c3ccncc3)CC2)cc1 [CBK301211G]
The viability at 28.5 h, 10 µM of the first is higher: 102% for the first, 92.7% for the second.

Compared with OCc1cccc2c3c(n(Cc4ccccc4)c12)CCCC3 [CBK004693], Cc1cc(CSc2ccccc2)ccc1NC(=O)/C=C/c1cccc([N+](=O)[O-])c1 [CBK264687] is higher in viability at 28.5 h, 10 µM: 91.3% for the first, 111% for the second.

Compared with O=C(Nc1ccc(=O)n2c1[C@@H]1C[C@@H](CN(C(=O)Nc3ccc(F)cc3)C1)C2)c1ccccc1 [CBK288715], Cc1cccc(CN2CC[C@H]3[C@@H](C2)[C@H](c2ccsc2)CN3C(=O)c2ccc(F)cc2)c1 [CBK285639] is higher in viability at 28.5 h, 10 µM: 89.9% for the first, 94.9% for the second.

Going from CN(C)CCN(C)c1cncc(-c2cccc(C(F)(F)F)c2)n1 [CBK065584] to COCCNc1nccnc1-c1cccc(C(F)(F)F)c1 [CBK037330], the viability at 28.5 h, 10 µM falls from 115% to 89.7%.

Going from CN(C)CCNCc1ccccc1OC1CCCC1 [CBK278214C] to CN(C)CCCn1cccc1C=O [CBK261993G], the viability at 28.5 h, 10 µM falls from 111% to 90.3%.

First: C=CCN(CC=C)Cc1c(C)nc2ccc(CC)cc2c1O [CBK264998]
Second: CCCC/C=C/c1nccnc1N(C)Cc1ccccc1 [CBK037412]
The viability at 28.5 h, 10 µM of the first is lower: 92.6% for the first, 99.8% for the second.

First: Cc1cc(C)nc(NC(=O)COc2ccc([N+](=O)[O-])cc2)n1 [CBK265004]
Second: O=C(COc1ccccc1[N+](=O)[O-])Nc1nc2c(s1)CCC2 [CBK296663]
The viability at 28.5 h, 10 µM of the first is higher: 101% for the first, 85.1% for the second.

First: Cn1c(=O)c2c(nc(NCc3ccc4c(c3)OCO4)n2Cc2cccc(Cl)c2)n(C)c1=O [CBK074359]
Second: CC(C)NS(=O)(=O)c1ccc(OCC(=O)Nc2ccc3c(c2)OCO3)c(Cl)c1 [CBK267919]
The viability at 28.5 h, 10 µM of the first is higher: 96.4% for the first, 92.5% for the second.

Going from CC(NC(=O)C1C2C=CC(C2)C1C(=O)O)c1ccccc1 (centres unmarked) [CBK265384] to CC(Cn1cccn1)C(=O)Nc1cccc(N2CCCC2)c1 (centres unmarked) [CBK283249], the viability at 28.5 h, 10 µM falls from 109% to 87.1%.

First: Cc1cc(-c2cn3cc(C(=O)NCCN(C)C)nc3c(=O)n2C)c(C)o1 [CBK307160]
Second: CC(C)n1ccc2cc(C(=O)NC3CCOC(C)(C)C3)ccc21 (centres unmarked) [CBK304366]
The viability at 28.5 h, 10 µM of the first is higher: 94.3% for the first, 90.6% for the second.

Going from Cc1ccc(S(=O)(=O)N(CC(=O)N/N=C\c2ccc3c(c2)OCO3)c2cccc3cccnc23)cc1 [CBK262478] to O=c1[nH]c2ncc(-c3cccc4cccnc34)nc2n1Cc1cccnc1 [CBK064305], the viability at 28.5 h, 10 µM falls from 101% to 58.9%.

Compared with Cc1nnc(SCCOc2ccc(Cl)c(C)c2)s1 [CBK026160], c1ccc2c(OCc3nnn[nH]3)cccc2c1 [CBK269495] is higher in viability at 28.5 h, 10 µM: 89.9% for the first, 103% for the second.

Compared with O=C(Nc1nc2c(s1)CCCCC2)C1CN(C(=O)Cc2ccc(F)cc2)C1 [CBK285904], O=S1(=O)C=C(SCCN2CCCCC2)c2ccccc21 [CBK265328] is higher in viability at 28.5 h, 10 µM: 87.2% for the first, 92.6% for the second.

First: Cc1ccnc2nc(C(=O)OC(C)C(=O)NC3CC3)nn12 (centres unmarked) [CBK304998]
Second: O=C(NC1CCCCC1)c1cc(Br)cnc1NCCCn1ccnc1 [CBK076494]
The viability at 28.5 h, 10 µM of the first is lower: 92.5% for the first, 99.7% for the second.

First: O=C1/C(=C/c2c(NCCc3ccccc3)nc3ccccn3c2=O)SC(=S)N1Cc1ccco1 [CBK264674]
Second: O=C(Cn1c2ccccc2n2ncnc12)c1ccc(-c2ccccc2)cc1 [CBK263097]
The viability at 28.5 h, 10 µM of the first is lower: 96.4% for the first, 106% for the second.

Compared with C[C@]12CN(CC3CC=CCC3)C[C@H]1C(=O)Nc1ccccc1C(=O)N2 (some centres unmarked) [CBK284738], COc1ccc(-c2ccc3c(c2)C(=O)N2CC[C@H](N)C[C@H]2C(=O)N3)c(OC)c1 [CBK289560] is higher in viability at 28.5 h, 10 µM: 96.6% for the first, 104% for the second.

First: COc1cc(C(=O)NN)cc(OC)n1 [CBK012275]
Second: COc1ccc(Nc2nc(-c3cccnc3)cnc2N)cc1 [CBK063952]
The viability at 28.5 h, 10 µM of the first is lower: 83.7% for the first, 90.3% for the second.

Going from C#CCNC(=O)[C@H]1O[C@H](CCN2CCCCC2)CC[C@@H]1O [CBK288728] to O=C(c1c(F)cccc1F)N1C2CCC1c1snnc1C2 (centres unmarked) [CBK284990], the viability at 28.5 h, 10 µM falls from 101% to 91.5%.

Going from Cc1cc(-c2nccnc2NCc2ccccn2)cc(C)c1O [CBK036921] to Fc1ccccc1-c1nccnc1NCc1ccncc1 [CBK037540], the viability at 28.5 h, 10 µM rises from 94.2% to 101%.

First: Sc1nnc(COc2ccccc2)n1/N=C/c1ccncc1 [CBK265360]
Second: CCOC(=O)c1ccc(-n2sc3ccccc3c2=O)cc1 [CBK115552]
The viability at 28.5 h, 10 µM of the first is higher: 100% for the first, 99.1% for the second.

First: Cc1ccc(S(=O)(=O)Nc2sccc2C(=O)O)cc1 [CBK042244]
Second: CCN(CC)C(=O)c1ccc(NS(=O)(=O)c2cccc(Cl)c2C)cc1 [CBK034393]
The viability at 28.5 h, 10 µM of the first is lower: 98.6% for the first, 108% for the second.

First: CCn1cc(-c2cncn2CCCC(C)(C)CO)cn1 [CBK281704]
Second: FC(F)(F)c1cccc(OCCN2CCNCC2)n1 [CBK113291]
The viability at 28.5 h, 10 µM of the first is lower: 88.3% for the first, 91.5% for the second.

Compound COc1cc2c(c(OC)c1OC)C1(CCN(Cc3ccc(S(C)(=O)=O)cc3)CC1)NC(=O)C2 [CBK040014] has a viability at 28.5 h, 10 µM of 108%.
